From PubChem BioAssay AID248 (DTP/NCI, 2004)
“And” between values parts separate entries of the source, which are not always exact repeats. Equal entries are not always repeated. Inconclusive results and toxic doses are left out. No stated cut-off is given here; in the data, active means T/C of 150% or more; inactive means T/C below 125%.

System: L1210 leukemia ip in BDF1 mice, survival T/C
Assay: NCI In Vivo Anticancer Drug Screen. Data for tumor model L1210 Leukemia (intraperitoneal) in B6D2F1 (BDF1) mice
Conditions: endpoint: mean survival time, higher = longer survival
Summary of the method: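 In this screen, tumor-bearing mice given compound are compared to those given vehicle, and their survival values are reported as a treated-to-control quotient.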

[1] = dose: 100.0 mg/kg/injection, schedule: Q01DX009 (ip), vehicle: Klucel (hydroxypropylcellulose) (HPC)
[2] = dose: 200.0 mg/kg/injection, schedule: Q01DX009 (ip), vehicle: Klucel (hydroxypropylcellulose) (HPC)
[3] = dose: 100.0 mg/kg/injection, schedule: Q01DX009 (ip), vehicle: saline with Tween-80
[4] = dose: 200.0 mg/kg/injection, schedule: Q01DX009 (ip), vehicle: saline with Tween-80
[5] = dose: 100.0 mg/kg/injection, schedule: Q01DX001 (ip), vehicle: Klucel (hydroxypropylcellulose) (HPC)
[6] = dose: 200.0 mg/kg/injection, schedule: Q01DX001 (ip), vehicle: Klucel (hydroxypropylcellulose) (HPC)
[7] = dose: 400.0 mg/kg/injection, schedule: Q01DX001 (ip), vehicle: Klucel (hydroxypropylcellulose) (HPC)

Measured: T/C

CC1(C)N=C(N)N=C(N)N1c1ccc(CC(C(=O)Nc2ccc(S(=O)(=O)F)cc2)c2ccccc2)cc1 (centres undefined)
inactive: dose: 75.0 mg/kg/injection, schedule: Q01DX001 (ip), vehicle: Klucel (hydroxypropylcellulose) (HPC) 97 % of control | dose: 150.0 mg/kg/injection, schedule: Q01DX001 (ip), vehicle: Klucel (hydroxypropylcellulose) (HPC) 94 % of control | dose: 300.0 mg/kg/injection, schedule: Q01DX001 (ip), vehicle: Klucel (hydroxypropylcellulose) (HPC) 90 % of control

O=C(C(c1ccccn1)=P(c1ccccc1)(c1ccccc1)c1ccccc1)c1ccc([N+](=O)[O-])cc1
inactive: dose: 50.0 mg/kg/injection, schedule: Q01DX009 (ip), vehicle: Klucel (hydroxypropylcellulose) (HPC) 88 % of control | [1] 91 % of control | [2] 98 % of control

Clc1nc(N2CC2)nc(N2CC2)n1
inactive: dose: 2.5 mg/kg/injection, schedule: Q01DX001 (ip), vehicle: carboxymethylcellulose (CMC) 112 % of control | dose: 5.0 mg/kg/injection, schedule: Q01DX001 (ip), vehicle: carboxymethylcellulose (CMC) 112 % of control | dose: 10.0 mg/kg/injection, schedule: Q01DX001 (ip), vehicle: carboxymethylcellulose (CMC) 117 % of control | dose: 15.0 mg/kg/injection, schedule: Q01DX001 (ip), vehicle: carboxymethylcellulose (CMC) 114 % of control

OC1c2ccccc2C(c2ccccc2)C1c1ccccc1 (centres undefined)
inactive: dose: 200.0 mg/kg/injection, schedule: Q04DX003 (ip), vehicle: saline with Tween-80 87 % of control | dose: 400.0 mg/kg/injection, schedule: Q04DX003 (ip), vehicle: saline with Tween-80 90 % of control

Cc1cccc(OCCOC(=O)Nc2ccccc2F)c1
inactive: [1] 103 % of control | [2] 93 % of control | dose: 400.0 mg/kg/injection, schedule: Q01DX009 (ip), vehicle: Klucel (hydroxypropylcellulose) (HPC) 106 % of control

O=C(Cc1ccccc1)CC(O)(C(F)(F)F)C(F)(F)F
inactive: [3] 110 % of control | [4] 100 % of control

CCOC(=O)Nc1cc2c(nnn2C(c2ccccc2)c2ccccc2)c(N)n1
inactive: dose: 5.0 mg/kg/injection, schedule: Q01DX001 (ip), vehicle: other 112 % of control | dose: 10.0 mg/kg/injection, schedule: Q01DX001 (ip), vehicle: other 98 % of control | dose: 20.0 mg/kg/injection, schedule: Q01DX001 (ip), vehicle: other 93 % of control | dose: 40.0 mg/kg/injection, schedule: Q01DX001 (ip), vehicle: other 91 % of control | dose: 80.0 mg/kg/injection, schedule: Q01DX001 (ip), vehicle: other 86 % of control

CC(=O)[C@H]1CC[C@H]2[C@@H]3CCC4=CC(=O)[C@H](C)C[C@]4(C)[C@@]3(F)C(=O)C[C@]12C
inactive: dose: 15.0 mg/kg/injection, schedule: Q01DX Z (sc), vehicle: steriod suspending solution 98 % of control | dose: 30.0 mg/kg/injection, schedule: Q01DX Z (sc), vehicle: steriod suspending solution 96 % of control | dose: 60.0 mg/kg/injection, schedule: Q01DX Z (sc), vehicle: steriod suspending solution 101 % of control and 113 % of control | dose: 100.0 mg/kg/injection, schedule: Q01DX009 (sc), vehicle: steriod suspending solution 116 % of control | dose: 100.0 mg/kg/injection, schedule: Q04DX003 (sc), vehicle: steriod suspending solution 98 % of control | dose: 120.0 mg/kg/injection, schedule: Q01DX Z (sc), vehicle: steriod suspending solution 105 % of control | dose: 200.0 mg/kg/injection, schedule: Q01DX009 (sc), vehicle: steriod suspending solution 110 % of control | dose: 200.0 mg/kg/injection, schedule: Q04DX003 (sc), vehicle: steriod suspending solution 98 % of control | dose: 240.0 mg/kg/injection, schedule: Q01DX Z (sc), vehicle: steriod suspending solution 103 % of control | dose: 400.0 mg/kg/injection, schedule: Q01DX009 (sc), vehicle: steriod suspending solution 111 % of control | dose: 400.0 mg/kg/injection, schedule: Q04DX003 (sc), vehicle: steriod suspending solution 98 % of control

NC(=O)N/N=C1/CC2C3C=CC4C3CC2C14 (centres undefined)
inactive: dose: 37.5 mg/kg/injection, schedule: Q04DX002 (ip), vehicle: saline with Tween-80 117 % of control | dose: 75.0 mg/kg/injection, schedule: Q04DX002 (ip), vehicle: saline with Tween-80 102 % of control | dose: 150.0 mg/kg/injection, schedule: Q04DX002 (ip), vehicle: saline with Tween-80 106 % of control | dose: 300.0 mg/kg/injection, schedule: Q04DX002 (ip), vehicle: saline with Tween-80 98 % of control

COc1ccc(-n2c(=O)c(N=Nc3ccc(Cl)cc3)c(O)n(-c3ccc(Br)cc3)c2=S)cc1
inactive: [5] 94 % of control | [6] 94 % of control | [7] 92 % of control

CCCCC#CC(O)(C(=O)OC)c1ccccc1 (centres undefined)
inactive: dose: 100.0 mg/kg/injection, schedule: Q01DX001 (ip), vehicle: other 107 % of control | dose: 200.0 mg/kg/injection, schedule: Q01DX001 (ip), vehicle: other 110 % of control | dose: 400.0 mg/kg/injection, schedule: Q01DX001 (ip), vehicle: other 94 % of control

Nc1nc(N)c(N)c(N=O)n1
inactive: dose: 100.0 mg/kg/injection, schedule: Q01DX Z (ip), vehicle: methylcellulose (MC) 86 % of control

CN1CCN(C)P1(=O)N1CCCC1
inactive: dose: 100.0 mg/kg/injection, schedule: Q01DX001 (ip), vehicle: saline 107 % of control | dose: 200.0 mg/kg/injection, schedule: Q01DX001 (ip), vehicle: saline 94 % of control | dose: 400.0 mg/kg/injection, schedule: Q01DX001 (ip), vehicle: saline 94 % of control

CCCCC(=O)C(OC)OC
inactive: [3] 119 % of control | [4] 95 % of control | dose: 400.0 mg/kg/injection, schedule: Q01DX009 (ip), vehicle: saline with Tween-80 92 % of control

COc1ccc(C(=O)OCCN(CCOC(=O)c2ccc(OC)cc2)c2c[nH]c(=O)[nH]c2=O)cc1
inactive: dose: 50.0 mg/kg/injection, schedule: Q01DX001 (ip), vehicle: carboxymethylcellulose (CMC) 106 % of control | dose: 100.0 mg/kg/injection, schedule: Q01DX001 (ip), vehicle: carboxymethylcellulose (CMC) 93 % of control | dose: 200.0 mg/kg/injection, schedule: Q01DX001 (ip), vehicle: carboxymethylcellulose (CMC) 95 % of control | dose: 400.0 mg/kg/injection, schedule: Q01DX001 (ip), vehicle: carboxymethylcellulose (CMC) 93 % of control

N#C/C(N)=C(/C#N)N=Cc1ccccc1
inactive: [5] 97 % of control | [6] 98 % of control | [7] 98 % of control

CC1(C)Cc2nc3ccccc3nc2-c2ccccc21
inactive: dose: 100.0 mg/kg/injection, schedule: Q04DX003 (ip), vehicle: saline 95 % of control | dose: 200.0 mg/kg/injection, schedule: Q04DX003 (ip), vehicle: saline 90 % of control | dose: 400.0 mg/kg/injection, schedule: Q04DX003 (ip), vehicle: saline 100 % of control

C/C(=N/S(=O)(=O)c1ccc(C)cc1)OCCN(C)C
inactive: dose: 3.0 mg/kg/injection, schedule: Q01DX009 (ip), vehicle: saline with Tween-80 100 % of control | dose: 3.0 mg/kg/injection, schedule: Q04DX003 (ip), vehicle: saline with Tween-80 98 % of control | dose: 6.0 mg/kg/injection, schedule: Q01DX009 (ip), vehicle: saline with Tween-80 95 % of control | dose: 6.0 mg/kg/injection, schedule: Q04DX003 (ip), vehicle: saline with Tween-80 101 % of control | dose: 12.5 mg/kg/injection, schedule: Q04DX003 (ip), vehicle: saline with Tween-80 90 % of control

CC1=C2C(=C[C@@](C)(CO)[C@@H]2O)C(=O)[C@](C)(O)C12CC2
inactive: dose: 75.0 micrograms/kg/injection, schedule: Q01DX Z (ip), vehicle: saline 103 % of control | dose: 150.0 micrograms/kg/injection, schedule: Q01DX Z (ip), vehicle: saline 117 % of control | dose: 300.0 micrograms/kg/injection, schedule: Q01DX Z (ip), vehicle: saline 117 % of control | dose: 600.0 micrograms/kg/injection, schedule: Q01DX Z (ip), vehicle: saline 100 % of control
